Measured values: patent publication US20230330196A1, “IMMUNOSUPPRESSIVE AGENTS” (The Trustees of Columbia University in the City of New York, priority 2020, published 2023)

Test system: allo-reactive T cells
Assay: Mixed lymphocyte reaction, B6 SPCs cocultured with irradiated BALB/c SPCs with WT or E223A mutant MMP13
Type: cell-based, mouse
Settings: 5 days coculture
Procedure: Flow cytometric analysis: Single-cell suspensions were filtered through nylon mesh and stained with the following antibodies: CD3, CD4, CD8, CD25, IFN-g, PD-L1, CD11c, B220, CD11b, F4/80, and then analyzed by FCM using Fortessa.
SPCs from B6 mice were seeded at 5×10e5/well, cocultured with irradiated BALB/c SPCs (5×10e5/well) in the presence of recombinant human MMP13 (WT-MMP13) or mutant MMP13 (E223A, muMMP13) proteins for 5 days.

mu-MMP13: catalytically-inactive E223A point mutant of MMP-13
CFSElo CD25+ of CD4+ T cells (decreased from 21.1% without MMP13): 3.2%
CFSElo CD25+ of CD8+ T cells (down from 41.5% without MMP13): 2.5%
